Reference: article PMC4054929 (Bioorganic & medicinal chemistry, 2014)

Assay: In vivo biodistribution and regional brain uptake in rats
Settings: male SD rats, i.v.

SMILES	Biodistribution, blood (5 min p.i.)	Biodistribution, cerebellum (5 min p.i.)	Biodistribution, fat (5 min p.i.)	Biodistribution, heart (5 min p.i.)	Biodistribution, kidney (5 min p.i.)	Biodistribution, liver (5 min p.i.)	Biodistribution, lung (5 min p.i.)	Biodistribution, muscle (5 min p.i.)	Biodistribution, striatum (5 min p.i.)	Biodistribution, total brain (5 min p.i.)	Biodistribution, blood (30 min p.i. (control))	Biodistribution, cerebellum (30 min p.i. (control))	Biodistribution, fat (30 min p.i. (control))	Biodistribution, heart (30 min p.i. (control))	Biodistribution, kidney (30 min p.i. (control))	Biodistribution, liver (30 min p.i. (control))	Biodistribution, lung (30 min p.i. (control))	Biodistribution, muscle (30 min p.i. (control))	Biodistribution, striatum (30 min p.i. (control))	Biodistribution, total brain (30 min p.i. (control))	also measured
Cn1cc(-c2ccncc2)c(-c2ccc(OCc3ccc4cc(O[11CH3])ccc4n3)cc2)n1 [[^11C]3, 6-(methoxy-^11C)-2-((4-(1-methyl-4-(pyridin-4-yl)-1H-pyrazol-3-yl)phenoxy)methyl)quinoline]	0.282 ± 0.025 %ID/gram	0.251 ± 0.031 %ID/gram	0.139 ± 0.038 %ID/gram	0.416 ± 0.026 %ID/gram	1.333 ± 0.282 %ID/gram	5.357 ± 0.989 %ID/gram	0.744 ± 0.241 %ID/gram	0.151 ± 0.027 %ID/gram	0.293 ± 0.075 ^b %ID/gram	0.249 ± 0.037 %ID/gram	0.275 ± 0.041 %ID/gram	0.090 ± 0.018 %ID/gram	0.221 ± 0.060 %ID/gram	0.264 ± 0.032 %ID/gram	0.883 ± 0.123 %ID/gram	3.172 ± 0.606 %ID/gram	0.389 ± 0.082 %ID/gram	0.175 ± 0.009 %ID/gram	0.160 ± 0.023 ^a %ID/gram	0.105 ± 0.011 %ID/gram	Biodistribution, blood (60 min p.i.): 0.210 ± 0.023 %ID/gram; Biodistribution, cerebellum (60 min p.i.): 0.066 ± 0.008 %ID/gram; Biodistribution, fat (60 min p.i.): 0.135 ± 0.026 %ID/gram; Biodistribution, heart (60 min p.i.): 0.182 ± 0.020 %ID/gram; Biodistribution, kidney (60 min p.i.): 0.637 ± 0.052 %ID/gram; Biodistribution, liver (60 min p.i.): 1.724 ± 0.510 %ID/gram; Biodistribution, lung (60 min p.i.): 0.249 ± 0.015 %ID/gram; Biodistribution, muscle (60 min p.i.): 0.129 ± 0.006 %ID/gram; Biodistribution, striatum (60 min p.i.): 0.089 ± 0.014 ^a %ID/gram; Biodistribution, total brain (60 min p.i.): 0.074 ± 0.005 %ID/gram
Cn1ncc(-c2ccncc2)c1-c1ccc(OCc2cc(O[11CH3])c3ccccc3n2)cc1 [[^11C]4, 4-(methoxy-^11C)-2-((4-(1-methyl-4-(pyridin-4-yl)-1H-pyrazol-5-yl)phenoxy)methyl)quinoline]	0.099 ± 0.015 %ID/gram	0.094 ± 0.017 %ID/gram	0.066 ± 0.016 %ID/gram	0.335 ± 0.026 %ID/gram	1.744 ± 0.316 %ID/gram	3.312 ± 0.494 %ID/gram	0.643 ± 0.196 %ID/gram	0.146 ± 0.027 %ID/gram	0.151 ± 0.033 ^a %ID/gram	0.091 ± 0.017 %ID/gram	0.067 ± 0.006 %ID/gram	0.024 ± 0.007 %ID/gram	0.139 ± 0.027 %ID/gram	0.132 ± 0.019 %ID/gram	0.645 ± 0.088 %ID/gram	4.430 ± 0.481 %ID/gram	0.156 ± 0.020 %ID/gram	0.093 ± 0.010 %ID/gram	0.083 ± 0.010 ^a %ID/gram	0.025 ± 0.004 %ID/gram	Biodistribution, blood (60 min p.i.): 0.067 ± 0.011 %ID/gram; Biodistribution, cerebellum (60 min p.i.): 0.015 ± 0.003 %ID/gram; Biodistribution, fat (60 min p.i.): 0.139 ± 0.058 %ID/gram; Biodistribution, heart (60 min p.i.): 0.103 ± 0.012 %ID/gram; Biodistribution, kidney (60 min p.i.): 0.575 ± 0.075 %ID/gram; Biodistribution, liver (60 min p.i.): 4.588 ± 0.577 %ID/gram; Biodistribution, lung (60 min p.i.): 0.107 ± 0.016 %ID/gram; Biodistribution, muscle (60 min p.i.): 0.052 ± 0.009 %ID/gram; Biodistribution, striatum (60 min p.i.): 0.037 ± 0.004 ^a %ID/gram; Biodistribution, total brain (60 min p.i.): 0.015 ± 0.002 %ID/gram
